Laboratory results reported in ChEMBL document CHEMBL1921764, “Substrate profiling of IGF-1R and InsR: identification of a potent pentamer substrate” (Bioorg Med Chem Lett, 2011).
Active and inactive are the calls of the source. The calls are words filed in the database; no cut-off is given here. Peptide text beside a SMILES is read from it.

How the values were obtained:
[1] = target: Insulin receptor (Homo sapiens) (UniProt P06213); assay: Activity of pre-activated human GST-His6-tagged InsR assessed as compound phosphorylation at 500 uM measured every 2 mins for 60 mins by ADP-Quest assay
[2] = target: Insulin-like growth factor 1 receptor (Homo sapiens) (UniProt P08069); assay: Activity of pre-activated human GST-His6-tagged IGF-1R assessed as compound phosphorylation at 500 uM measured every 2 mins for 60 mins by ADP-Quest assay
Sequence of Insulin-like growth factor 1 receptor (Homo sapiens) (P08069 31-736 limits assumed): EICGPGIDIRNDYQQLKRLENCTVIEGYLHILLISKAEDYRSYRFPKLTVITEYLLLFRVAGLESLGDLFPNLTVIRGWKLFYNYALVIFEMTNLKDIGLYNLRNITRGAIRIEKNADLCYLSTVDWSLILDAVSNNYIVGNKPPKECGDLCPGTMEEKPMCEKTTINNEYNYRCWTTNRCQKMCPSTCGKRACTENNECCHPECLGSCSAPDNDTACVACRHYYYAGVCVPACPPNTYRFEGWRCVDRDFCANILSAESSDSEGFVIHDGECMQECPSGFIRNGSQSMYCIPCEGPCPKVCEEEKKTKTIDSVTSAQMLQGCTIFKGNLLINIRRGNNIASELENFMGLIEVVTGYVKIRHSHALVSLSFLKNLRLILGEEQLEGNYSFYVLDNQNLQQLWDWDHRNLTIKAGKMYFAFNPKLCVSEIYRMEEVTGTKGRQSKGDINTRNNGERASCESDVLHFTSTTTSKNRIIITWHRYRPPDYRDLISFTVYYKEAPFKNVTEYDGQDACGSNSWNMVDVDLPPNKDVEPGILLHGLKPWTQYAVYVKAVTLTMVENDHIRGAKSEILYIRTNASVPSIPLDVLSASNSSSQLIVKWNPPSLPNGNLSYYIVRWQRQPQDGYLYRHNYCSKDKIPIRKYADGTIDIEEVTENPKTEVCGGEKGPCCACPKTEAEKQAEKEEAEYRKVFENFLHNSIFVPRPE
Sequence of Insulin-like growth factor 1 receptor (Homo sapiens) (P08069 741-1367 limits assumed): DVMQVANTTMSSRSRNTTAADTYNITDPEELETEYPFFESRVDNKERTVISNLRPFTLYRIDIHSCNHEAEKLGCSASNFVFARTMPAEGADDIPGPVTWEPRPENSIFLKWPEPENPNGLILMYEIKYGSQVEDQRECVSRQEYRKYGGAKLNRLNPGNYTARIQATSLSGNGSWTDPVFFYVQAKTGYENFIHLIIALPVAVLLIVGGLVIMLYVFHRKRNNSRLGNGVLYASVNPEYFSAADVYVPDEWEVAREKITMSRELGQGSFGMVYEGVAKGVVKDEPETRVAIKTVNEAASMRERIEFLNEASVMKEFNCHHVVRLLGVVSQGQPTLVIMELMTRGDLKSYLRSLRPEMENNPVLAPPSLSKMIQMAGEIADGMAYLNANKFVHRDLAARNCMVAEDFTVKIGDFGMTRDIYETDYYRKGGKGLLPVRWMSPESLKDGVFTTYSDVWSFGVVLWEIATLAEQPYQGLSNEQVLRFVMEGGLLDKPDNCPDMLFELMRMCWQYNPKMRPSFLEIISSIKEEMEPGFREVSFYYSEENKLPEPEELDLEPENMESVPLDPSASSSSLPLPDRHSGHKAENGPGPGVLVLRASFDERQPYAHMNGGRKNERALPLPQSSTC

Sequence of Insulin receptor (Homo sapiens) (P06213 28-758 limits assumed): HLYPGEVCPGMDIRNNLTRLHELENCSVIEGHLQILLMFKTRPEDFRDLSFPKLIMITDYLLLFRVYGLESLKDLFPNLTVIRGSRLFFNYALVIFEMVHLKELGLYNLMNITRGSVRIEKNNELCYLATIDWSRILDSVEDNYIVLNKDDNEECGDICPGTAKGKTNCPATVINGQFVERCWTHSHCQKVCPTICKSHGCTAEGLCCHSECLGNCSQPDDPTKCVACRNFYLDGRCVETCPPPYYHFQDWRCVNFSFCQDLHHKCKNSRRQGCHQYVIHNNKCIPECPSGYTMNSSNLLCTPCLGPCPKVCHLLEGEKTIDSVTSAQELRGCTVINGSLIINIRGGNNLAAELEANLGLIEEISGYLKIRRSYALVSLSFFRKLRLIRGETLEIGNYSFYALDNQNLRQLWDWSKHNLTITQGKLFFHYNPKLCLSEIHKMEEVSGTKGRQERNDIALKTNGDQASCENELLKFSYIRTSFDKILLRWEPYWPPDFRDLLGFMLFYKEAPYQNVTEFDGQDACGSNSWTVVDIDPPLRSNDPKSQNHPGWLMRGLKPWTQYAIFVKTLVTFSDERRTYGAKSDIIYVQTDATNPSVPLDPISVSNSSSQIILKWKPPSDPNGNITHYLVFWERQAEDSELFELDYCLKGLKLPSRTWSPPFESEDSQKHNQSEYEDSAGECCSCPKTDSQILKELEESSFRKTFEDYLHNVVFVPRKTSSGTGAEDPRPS
Sequence of Insulin receptor (Homo sapiens) (P06213 763-1382 limits assumed): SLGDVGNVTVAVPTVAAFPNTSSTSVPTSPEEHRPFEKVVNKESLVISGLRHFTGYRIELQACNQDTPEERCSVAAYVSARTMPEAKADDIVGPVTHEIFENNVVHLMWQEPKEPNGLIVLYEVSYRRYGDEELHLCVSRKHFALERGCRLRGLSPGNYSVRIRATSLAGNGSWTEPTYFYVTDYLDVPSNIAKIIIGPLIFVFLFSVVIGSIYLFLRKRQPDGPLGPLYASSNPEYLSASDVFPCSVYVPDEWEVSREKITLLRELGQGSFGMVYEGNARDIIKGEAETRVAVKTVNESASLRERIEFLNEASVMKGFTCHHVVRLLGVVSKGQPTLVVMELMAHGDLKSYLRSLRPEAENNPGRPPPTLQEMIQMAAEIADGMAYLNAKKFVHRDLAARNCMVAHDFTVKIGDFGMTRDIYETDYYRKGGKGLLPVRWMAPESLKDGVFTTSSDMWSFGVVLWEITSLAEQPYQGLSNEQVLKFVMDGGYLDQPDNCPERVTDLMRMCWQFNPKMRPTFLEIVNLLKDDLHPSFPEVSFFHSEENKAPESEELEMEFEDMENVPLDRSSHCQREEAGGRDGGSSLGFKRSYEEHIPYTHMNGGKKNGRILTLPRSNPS

Activity [1]	Activity [2]	Molecule
inactive	inactive	H-SPGEYVNI-OH
inactive	inactive	H-GEYVN-OH
inactive	inactive	H-SPGEYVNIE-OH
inactive	inactive	H-PGEYVN-OH
inactive	inactive	N[C@@H](CC(=O)O)C(=O)N[C@@H](Cc1ccc(O)cc1)C(=O)N[C@@H](Cc1ccccc1)C(=O)N[C@@H](CCC(=O)O)C(=O)O (H-DYFE-OH)
inactive		H-GDYFE-OH
inactive	inactive	H-KSPGEYVNIE-OH
inactive	inactive	H-EQEDEPEGDYFEALE-OH
inactive	inactive	H-PGEYVNI-OH
inactive	inactive	H-KKKSPGEYVNIEAG-OH
inactive	inactive	H-EQEDEPEGAYFEWLE-OH
inactive	inactive	H-KKKSPGEYVNAEFG-OH

Molecule	Activity [1]	Activity [2]
N[C@@H](Cc1ccc(O)cc1)C(=O)N[C@@H](Cc1ccccc1)C(=O)N[C@@H](CCC(=O)O)C(=O)O (H-Tyr-Phe-Glu-OH)	inactive	inactive
N[C@@H](Cc1ccc(O)cc1)C(=O)N[C@@H](Cc1ccccc1)C(=O)N[C@@H](CCC(=O)O)C(=O)N[C@@H](Cc1c[nH]c2ccccc12)C(=O)O (H-YFEW-OH)	inactive	
